Reference: patent US12692248B2, “Solid state forms of (S)-N-(3-(2-(((R)-1-hydroxypropan-2-yl)amino)-6-morpholinopyridin-4-yl)-4-methylphenyl)-3-(2,2,2-trifluoroethyl)pyrrolidine-1-carboxamide and salts thereof” (PIERRE FABRE MEDICAMENT, priority 2021, dated 2026)
Where two headings read alike, the source gives them in different places.

Assays:
Format in all cases: physicochemical
[1] = Dynamic Vapor Sorption (DVS); details: DVS
Method: Dynamic Vapor Sorption (DVS) Moisture sorption/desorption data was collected on a DVS Intrinsic PLUS (SMS, UK). The sample was placed into a tared sample chamber and automatically weighed. The sample was dried at 40° C./0%0 RH until the dm/dt was less than 0.00200 and cooled to 25° C. [table]

[2] = Stability at 60° C. and 40° C. at 75% relative humidity for 9 days (UPLC purity, XRPD); details: UPLC; for Purity −3 d: 3 days; for Purity −9 d: 9 days
Method: Compound 1 and Compound 2 were evaluated for stability at 60° C. and 40° C. at 75% relative humidity for 9 days. At 0, 3, and 9 days, the samples were dissolved with diluent to prepare a solution for purity analysis by UPLC. Solid samples were also analyzed by XRPD to check the crystal form.

[3] = Stability of Compound 2 in 0.5% MC/0.1% Tween 80 at 10 mg/mL; details: suspension 10 mg/mL in 0.5% MC/0.1% Tween 80, RT, 7 days
Method: A solution of Compound 2 was evaluated for stability in 0.5% MC/0.1% Tween 80 at 10 mg/mL. 10.7 mg of Compound 2 was weighed into a sample vial, and then 500 μL of 1% MC and 500 μL of 0.2% Tween 80 were added to obtain a suspension at 10 mg/mL (calculated as the free base). The mixture was kept stirring for 15 min at RT and the suspension was placed at RT for 7 days.

[4] = Thermodynamic solubility in 13 solvents at RT and 50° C. by UPLC; details: for solubility: thermodynamic from solid; for XRPD at 1 d / XRPD at 4 d: residual solid
Method: Thermodynamic solubility of Compound 2 was measured in 13 solvents at RT and 50° C. by UPLC, respectively. […] In most of other selected solvents, the compound was almost insoluble (<0.5 mg/mL) except in EtOH and water where it was slightly soluble (6-9 mg/mL).

[5] = Comparison dissolution trials in water and biorelevant media; details: for solubility at 0.5 h: read-out: Solubility (mg/mL) 0.5 h; for solubility at 2 h: read-out: Solubility (mg/mL) 2 h; for solubility at 24 h: read-out: Solubility (mg/mL) 24 h
Method: Comparison dissolution trials were performed on Compounds 1 and 2. About 20 mg of each sample was weighed into a sample vial and then 4 mL of media was added to make a suspension. All suspensions were shaken at 37° C. with a rate of 200 rpm. […] He pH of the filtrate was measured, and the filter cake was analyzed by XRPD. […] In biorelevant dissolution media FaSSIF and FeSSIF, the solubility of the Compound 1 and Compound 2 were similar.

[6] = simulated gastric fluid, thermodynamic from solid, SGF, 37° C.
[7] = thermodynamic from solid, FaSSIF, 37° C.
[8] = thermodynamic from solid, FeSSIF, 37° C.
[9] = thermodynamic from solid, Water, 37° C.

SMILES: Cc1ccc(NC(=O)N2CC[C@@H](CC(F)(F)F)C2)cc1-c1cc(N[C@H](C)CO)nc(N2CCOCC2)c1.Cl [Compound 2, (S)—N-(3-(2-(((R)-1-hydroxypropan-2-yl)amino)-6-morpholinopyridin-4-yl)-4-methylphenyl)-3-(2,2,2-trifluoroethyl)pyrrolidine-1-carboxamide hydrochloride]
- hygroscopicity [1]: slightly hydroscopic
- water uptake at 80% RH ([1]; 25° C., 80% relative humidity): 0.66%
- water uptake at 90% relative humidity ([1]; 25° C., 90% relative humidity): 0.95%
- Purity −0 d (Area %) ([2]; 0 days (initial)): 99.77 Area %
- Purity −3 d ([2]; 40° C./75% RH): 99.74 Area %
- Purity −9 d ([2]; 40° C./75% RH): 99.76 Area %
- Purity −3 d ([2]; 60° C.): 99.73 Area %
- Purity −9 d ([2]; 60° C.): 99.74 Area %
- form change [3]: No form change
- purity decrease ([3]; UPLC): 0.13%
- solubility ([4]; ACN, 50 °C, organic solvent or mixture, ACN, 50° C., read-out: Solubility at 50° C.(mg/mL)): 0.92 mg/mL
- solubility ([4]; ACN, organic solvent or mixture, ACN, RT, read-out: Solubility at RT): 0.01 mg/mL
- solubility ([4]; EA, 50 °C, organic solvent or mixture, EA, 50° C., read-out: Solubility at 50° C.(mg/mL)): 0.09 mg/mL
- solubility ([4]; EA, organic solvent or mixture, EA, RT, read-out: Solubility at RT): 0.06 mg/mL
- solubility ([4]; EtOH and water, water, EtOH and water (slightly soluble), read-out: solubility): 6 to 9 mg/mL
- solubility ([4]; EtOH, 50 °C, organic solvent or mixture, EtOH, 50° C., read-out: Solubility at 50° C.(mg/mL)): 8.82 mg/mL
- solubility ([4]; EtOH, organic solvent or mixture, EtOH, RT, read-out: Solubility at RT): 7.15 mg/mL
- solubility ([4]; Hept, 50 °C, organic solvent or mixture, Hept, 50° C., read-out: Solubility at 50° C.(mg/mL)): 0.01 mg/mL
- solubility ([4]; Hept, organic solvent or mixture, Hept, RT, read-out: Solubility at RT): 0.01 mg/mL
- solubility ([4]; IPA, 50 °C, organic solvent or mixture, IPA, 50° C., read-out: Solubility at 50° C.(mg/mL)): 2.8 mg/mL
- solubility ([4]; IPA, organic solvent or mixture, IPA, RT, read-out: Solubility at RT): 1.69 mg/mL
- solubility ([4]; IPAC, 50 °C, organic solvent or mixture, IPAC, 50° C., read-out: Solubility at 50° C.(mg/mL)): 0.03 mg/mL
- solubility ([4]; IPAC, organic solvent or mixture, IPAC, RT, read-out: Solubility at RT): 0.02 mg/mL
- solubility ([4]; MEK, 50 °C, organic solvent or mixture, MEK, 50° C., read-out: Solubility at 50° C.(mg/mL)): 0.28 mg/mL
- solubility ([4]; MEK, organic solvent or mixture, MEK, RT, read-out: Solubility at RT): 0.01 mg/mL
- solubility ([4]; MIBK, 50 °C, organic solvent or mixture, MIBK, 50° C., read-out: Solubility at 50° C.(mg/mL)): 0.11 mg/mL
- solubility ([4]; MIBK, organic solvent or mixture, MIBK, RT, read-out: Solubility at RT): 0.05 mg/mL
- solubility ([4]; MTBE, 50 °C, organic solvent or mixture, MTBE, 50° C., read-out: Solubility at 50° C.(mg/mL)): 0.01 mg/mL
- solubility ([4]; MTBE, organic solvent or mixture, MTBE, RT, read-out: Solubility at RT): 0.02 mg/mL
- solubility ([4]; MeOH, 50 °C, organic solvent or mixture, MeOH, 50° C., read-out: Solubility at 50° C.(mg/mL)): ~102 mg/mL
- Solubility at RT ([4]; MeOH, RT, hydrochloride): 54670 µg/mL
- solubility ([4]; MeOH, organic solvent or mixture, MeOH, RT, read-out: Solubility at RT): ~55 mg/mL
- solubility ([4]; acetone, 50 °C, organic solvent or mixture, Acetone, 50° C., read-out: Solubility at 50° C.(mg/mL)): 0.45 mg/mL
- solubility ([4]; acetone, organic solvent or mixture, Acetone, RT, read-out: Solubility at RT): 0.65 mg/mL
- solubility ([4]; cyclohexane, 50 °C, organic solvent or mixture, Cyclohexane, 50° C., read-out: Solubility at 50° C.(mg/mL)): 0.05 mg/mL
- solubility ([4]; cyclohexane, organic solvent or mixture, Cyclohexane, RT, read-out: Solubility at RT): 0.01 mg/mL
- solubility ([4]; organic solvent or mixture, most of other selected solvents (almost insoluble), read-out: solubility): < 0.5 mg/mL
- XRPD at 1 d ([4]; ACN, 50° C.): Form I
- XRPD at 4 d ([4]; ACN, RT): Form I
- XRPD at 1 d ([4]; Acetone, 50° C.): Form I
- XRPD at 4 d ([4]; Acetone, RT): Form I
- XRPD at 1 d ([4]; Cyclohexane, 50° C.): Form I
- XRPD at 4 d ([4]; Cyclohexane, RT): Form I
- XRPD at 1 d ([4]; EA, 50° C.): Form I
- XRPD at 4 d ([4]; EA, RT): Form I
- XRPD at 1 d ([4]; EtOH, 50° C.): Form I
- XRPD at 4 d ([4]; EtOH, RT): Form I
- XRPD at 1 d ([4]; Hept, 50° C.): Form I
- XRPD at 4 d ([4]; Hept, RT): Form I
- XRPD at 1 d ([4]; IPA, 50° C.): Form I
- XRPD at 4 d ([4]; IPA, RT): Form I
- XRPD at 1 d ([4]; IPAC, 50° C.): Form I
- XRPD at 4 d ([4]; IPAC, RT): Form I
- XRPD at 1 d ([4]; MEK, 50° C.): Form I
- XRPD at 4 d ([4]; MEK, RT): Form I
- XRPD at 1 d ([4]; MIBK, 50° C.): Form I
- XRPD at 4 d ([4]; MIBK, RT): Form I
- XRPD at 1 d ([4]; MTBE, 50° C.): Form I
- XRPD at 4 d ([4]; MTBE, RT): Form I
- XRPD at 1 d ([4]; MeOH, 50° C.): Form I
- XRPD at 4 d ([4]; MeOH, RT): Form I
- XRPD at 1 d ([4]; Water, 50° C.): Form I
- XRPD at 4 d ([4]; Water, RT): Form I
- form change during the solubility testing ([4]; residual solids by XRPD): no form change
- solubility ([4]; water, 50 °C, water, Water, 50° C., read-out: Solubility at 50° C.(mg/mL)): 6.73 mg/mL
- solubility ([4]; water, Water, RT, read-out: Solubility at RT): 6.15 mg/mL
- solubility of Compound 1 and Compound 2 compared ([5]; FaSSIF and FeSSIF): similar
- pH of the filtrate ([5]; Water medium): (pH 3.1)
- solubility at 0.5 h [5, 6]: 0.2 mg/mL
- solubility at 2 h [5, 6]: 0.27 mg/mL
- solubility at 24 h [5, 6]: 0.39 mg/mL
- solubility at 0.5 h [5, 7]: 0.024 mg/mL
- solubility at 2 h [5, 7]: 0.021 mg/mL
- solubility at 24 h [5, 7]: 0.027 mg/mL
- solubility at 0.5 h [5, 8]: 0.21 mg/mL
- solubility at 2 h [5, 8]: 0.2 mg/mL
- solubility at 24 h [5, 8]: 0.23 mg/mL
- solubility at 0.5 h [5, 9]: 1.42 mg/mL
- solubility at 2 h [5, 9]: 1.36 mg/mL
- solubility at 24 h [5, 9]: 2.49 mg/mL
- solubility ([5]; thermodynamic from solid, water, 37° C.): ~2500 µg/mL
